From patent publication US10174013B2, “Benzimidazole derivatives as kinase inhibitors” (SELVITA S.A., priority 2012, dated 2019)
Read-outs that look alike come from different tables or passages of the source.

Tests used:
MV4-11 cells = test: Growth inhibition, MTS assay, MV4-11; type: cell-based, Human; details: MTS cell viability, read-out: MV4-11 ED50
Description: (§1) The following cell lines, were obtained and used in tests as outlined below: • Human myelomonocytic, biphenotypic leukemia MV4-11 cells (harboring a Flt3-ITD mutation); • Human Acute Myeloid Leukemia MOLM16 cells; • Human Acute Myeloid Leukemia MOLM13 cells (harboring a Flt3-ITD mutation); • Human Myeloid Leukemia KG-1 cells; • Human erythroleukemia HEL92 cells; • Human mantle cell lymphoma Jeko-1 cells; • Human hepatocellular carcinoma HepG2 cells; and • Human colon adenocarcinoma SW-480 cells.
(§2) The assays were carried out according to the following protocol, which is described as an example for the MV4-11 cells:
(§3) Ten thousand MV4-11 cells were inoculated into each well of a 96-well microplate (manufactured by Corning Corp.) using Iscove's MDM medium (culture medium) containing 10% fetal calf serum (FCS). The same day, a dimethyl sulfoxide (DMSO) solution of each test compound prepared in a concentration of 10 mmol/L was further diluted with DMSO to the desired concentrations (0.1, 0.5, 1, 2.5, 5 and 10 micromol/L), and the diluted solution was added to each well. The individual wells were further cultured in 5% carbon dioxide at 37° C. for 72 hours. […] Briefly, 10 μl MTS (3-(4,5-Dimethyl-2-thiazolyl)-5-(carboxymethoxyphenyl)-2-(4-sulfophenyl)-2H-tetrazolium was added to each well, and culturing was performed in 5% carbon dioxide at 37° C. for 2 hours. After this incubation and using a microplate spectrophotometer (Synergy 2 multi-mode microplate reader (BioTek)), the absorbance of each well was measured at 490 nm. The value for cells not incubated with a test compound was designated as 100%. By comparing these values with the absorbance difference obtained at the well in which each test compound was added, the cell viability (% viability) after treatment with the test compound was calculated.

HepG2 cells = test: Growth inhibition, MTS assay, HepG2; type: cell-based, Human; details: MTS cell viability, read-out: HepG2 ED50
Description: as §1, §2, §3

HEL92 cells = test: Growth inhibition, MTS assay, HEL92; type: cell-based, Human; details: MTS cell viability, read-out: HEL92 ED50
Description: as §1, §2, §3

Pim-1 = Pim-1 (Homo sapiens (Human), UniProt P11309); test: ADP-Glo Kinase Assay, Pim-1; type: biochemical; details: 1 μM compound; for inhibition at 1 µM: read-out: Pim-1 % INH (1 μM)
Description: (§4) Compounds of the present invention were tested for their inhibitory activity against Pim-1, Pim-2, Pim-3, Flt3 wt, Flt3 ITD, CDK2/E and DYRK1. The testing of the compounds was carried out using the ADP-Glo™ Kinase Assay from Promega Corporation (Madison, Wis., USA).
(§5) The ADP-Glo™ Kinase Assay is a luminescent ADP detection assay to measure kinase activity by quantifying the amount of ADP produced during a kinase reaction. The kinase assay is performed in kinase assay buffer (5 mM MOPS, pH 7.5, 5 mM MgCl2, 0.4 mM EDTA, 1.5 mM DTT). Test samples initially dissolved in DMSO at 10 mM were diluted with the assay buffer to 1000 nM. A 30 μL volume/well of a mixture of substrates containing ATP (final ATP concentration in each kinase assay was equal to its apparent ATP Km).
(§6) The assay was performed in two steps: first, after the kinase reaction, an equal volume of ADP-Glo™ Reagent was added to terminate the kinase reaction and deplete the remaining ATP. Second, the Kinase Detection Reagent was added to simultaneously convert ADP to ATP and allowed the newly synthesized ATP to be measured using a luciferase/luciferin reaction. The luminescent signal generated was proportional to the ADP concentration produced and was correlated with kinase activity. A microplate spectrophotometer (Synergy 2 multi-mode microplate reader [BioTek]) was used for detecting the luminescence. The data was normalized and the percent of inhibition was obtained according to the following equation: […]

DYRK1 = DYRK1 (Homo sapiens (Human), UniProt Q13627); test: ADP-Glo Kinase Assay, DYRK1; type: biochemical; details: 1 μM compound
Description: as §4, §5, §6

FLT3wt = FLT3wt (Homo sapiens (Human), UniProt P36888); test: ADP-Glo Kinase Assay, Flt3 wt; type: biochemical; details: 1 μM compound
Description: as §4, §5, §6

Pim-1, sequence (P11309 whole entry): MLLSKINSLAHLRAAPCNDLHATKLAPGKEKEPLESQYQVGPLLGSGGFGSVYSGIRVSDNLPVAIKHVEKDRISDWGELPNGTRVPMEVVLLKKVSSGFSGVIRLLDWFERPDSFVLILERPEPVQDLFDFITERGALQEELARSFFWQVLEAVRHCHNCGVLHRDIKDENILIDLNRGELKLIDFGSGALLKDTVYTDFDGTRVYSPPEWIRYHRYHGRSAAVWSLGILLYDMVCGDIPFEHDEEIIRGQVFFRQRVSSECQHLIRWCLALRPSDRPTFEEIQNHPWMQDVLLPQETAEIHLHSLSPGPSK
FLT3wt, sequence (P36888 27-993): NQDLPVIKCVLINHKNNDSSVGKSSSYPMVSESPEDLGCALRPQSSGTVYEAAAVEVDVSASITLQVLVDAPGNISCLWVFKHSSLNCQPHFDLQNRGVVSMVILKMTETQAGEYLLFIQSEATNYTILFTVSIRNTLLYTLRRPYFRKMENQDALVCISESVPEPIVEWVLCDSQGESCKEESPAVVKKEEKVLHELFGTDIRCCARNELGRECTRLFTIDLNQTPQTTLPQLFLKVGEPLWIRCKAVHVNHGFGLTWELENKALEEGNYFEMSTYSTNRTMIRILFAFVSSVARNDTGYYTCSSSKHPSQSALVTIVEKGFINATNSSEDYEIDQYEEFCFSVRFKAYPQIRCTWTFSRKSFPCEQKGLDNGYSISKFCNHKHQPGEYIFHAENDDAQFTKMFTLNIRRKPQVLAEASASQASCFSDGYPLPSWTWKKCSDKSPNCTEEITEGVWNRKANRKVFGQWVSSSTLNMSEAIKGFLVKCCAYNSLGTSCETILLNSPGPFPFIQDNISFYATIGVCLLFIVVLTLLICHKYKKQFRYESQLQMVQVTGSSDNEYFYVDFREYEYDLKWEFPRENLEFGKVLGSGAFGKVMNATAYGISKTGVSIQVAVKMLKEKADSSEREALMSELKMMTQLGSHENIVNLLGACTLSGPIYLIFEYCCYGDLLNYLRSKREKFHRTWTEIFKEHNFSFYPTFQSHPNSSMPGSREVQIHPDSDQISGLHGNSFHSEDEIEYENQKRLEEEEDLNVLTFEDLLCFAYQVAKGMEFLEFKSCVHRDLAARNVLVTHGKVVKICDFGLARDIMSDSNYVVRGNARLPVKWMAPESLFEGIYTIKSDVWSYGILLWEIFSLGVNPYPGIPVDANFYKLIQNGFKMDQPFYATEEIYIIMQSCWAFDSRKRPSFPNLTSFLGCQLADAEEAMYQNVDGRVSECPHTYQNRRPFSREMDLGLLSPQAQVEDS

Compound | IC50 (MV4-11 cells; 72 hours) [µM] | IC50 (HepG2 cells; 72 hours) [µM] | inhibition at 1 µM (Pim-1) [%] | Pim-1 % INH (1 μM) (Pim-1) [%] | DYRK1A % INH (1 μM) (DYRK1) [%] | IC50 (HEL92 cells; 72 hours) [µM] | other results
Cc1c(Br)cc2c(nc(N3CCNCC3)n2C(C)C)c1[N+](=O)[O-] [Example 4A, 5-methyl-6-bromo-4-nitro-2-(piperazin-1-yl)-1-(propan-2-yl)-1H-1,3-benzodiazole] | – | – | 81 | – | – | – | IC50 (MV4-11 cells; Homo sapiens, MV4-11, 72 h): 1 µM; IC50 (HEL92 cells; Homo sapiens, 72 h): 8.7 µM
5-bromo-6-methyl-4-nitro-2-(piperazin-1-yl)-1-(propan-2-yl)-1H-1,3-benzodiazole [Example 4B] | 1.2 | 1.8 | – | >95 | 51 | 4.1 | –
CCn1c(N2CCNCC2C)nc2c([N+](=O)[O-])c(Cl)c(Cl)cc21 (centres unmarked) [Example 1DA] | 0.5 | 0.9 | – | 91 | 36 | 1.1 | –
N#Cc1c(Br)c(Br)cc2c1nc(N1CC[C@@H](N)C1)n2[C@H]1CCNC1 [Example 8G, 2-[(3R)-3-aminopyrrolidin-1-yl]-5,6-dibromo-1-[(3S)-pyrrolidin-3-yl]-1H-1,3-benzodiazole-4-carbonitrile] | – | – | > 95 | – | – | – | –
CC(C)n1c(N[C@@H]2CCCNC2)nc2c([N+](=O)[O-])c(Br)c(Br)cc21 [Example 1CA] | 2.6 | 1.8 | – | 77 | 64 | 9.7 | –
CCn1c(N2CCNCC2)nc2c([N+](=O)[O-])c(Cl)c(Cl)cc21 [Example 1CN] | 3.3 | 4.5 | – | 76 | 27 | 9.4 | –
O=[N+]([O-])c1c(Br)c(Br)cc2c1nc(N1CCNCC1)n2C1CCC1 [Example 1DG] | 0.2 | 0.4 | – | >95 | 92 | 1.8 | –
CC(C)n1c(N2CCNCC2)nc2c([N+](=O)[O-])c(Br)c(F)cc21 [Example 1CL] | 1.0 | 1.5 | – | 82 | 45 | 2.4 | –
CC(C)n1c(N2CC[C@@H](N)C2)nc2c([N+](=O)[O-])c(Br)c(F)cc21 [Example 1CY] | 2.1 | 2.8 | – | >95 | – | 8.9 | Flt3wt % INH (1 μM) (FLT3wt): <5%
CC[C@H]1CNCCN1c1nc2c([N+](=O)[O-])c(Br)c(Br)cc2n1C(C)C [Example 1EA] | – | – | > 95 | – | – | – | –

The next lines start with results.

IC50 (MV4-11 cells; 72 hours) [µM] | IC50 (HepG2 cells; 72 hours) [µM] | inhibition at 1 µM (Pim-1) [%] | Pim-1 % INH (1 μM) (Pim-1) [%] | DYRK1A % INH (1 μM) (DYRK1) [%] | Compound | IC50 (HEL92 cells; 72 hours) [µM] | other results
2.0 | 2.3 | – | – | – | CC(C)n1c(N[C@@H]2CCNC2)nc2c([N+](=O)[O-])c(Br)c(Br)cc21 [Example 1BF] | 7.6 | –
– | – | 56 | – | – | O=[N+]([O-])c1c(Br)c(Br)cc2c1nc(C1CCNCC1)n2CC1CCNCC1 [Example 27A, 5,6-dibromo-4-nitro-2-(piperidin-4-yl)-1-(piperidin-4-ylmethyl)-1H-1,3-benzodiazole] | – | –
– | – | > 95 | – | – | COC1CN(c2nc3c([N+](=O)[O-])c(Br)c(Br)cc3n2C(C)C)CC1N (centres unmarked) [Example 1EB] | – | –
4.3 | 2.2 | – | 93 | – | CCn1c(NC2CCC(N)CC2)nc2c([N+](=O)[O-])c(Br)c(Br)cc21 (centres unmarked) [Example 1DO] | – | –
– | – | 95 | – | – | O=[N+]([O-])c1c(Br)c(Br)cc2c1nc(N1CCNCC1)n2CCO [Example 1DJ] | – | inhibition at 1 µM (DYRK1; read-out: DYRK1A % INH (1 μM)): > 95%; IC50 (MV4-11 cells; Homo sapiens, MV4-11, 72 h): 0.6 µM; IC50 (HepG2 cells; Homo sapiens, HepG2, 72 h): 2.1 µM; IC50 (HEL92 cells; Homo sapiens, 72 h): 6.7 µM
2.0 | 3.7 | – | >95 | 55 | N[C@@H]1CCN(c2nc3c([N+](=O)[O-])c(Br)c(Br)cc3n2CCCO)C1 [Example 1DF] | – | Flt3wt % INH (1 μM) (FLT3wt): 18%
5.5 | 5.3 | – | – | – | O=[N+]([O-])c1c(Br)c(Br)cc2c1nc(N[C@@H]1CCNC1)n2CC1CC1 [Example 1CJ] | 5.5 | –
– | – | > 95 | – | – | CCn1c(N2CCC[C@H](NC)C2)nc2c([N+](=O)[O-])c(Br)c(Br)cc21 [Example 1DZ] | – | –
